Measurements published in US8802630B2, “Method of treating brain injury” (Buddhist Tzu Chi General Hospital, priority 2011, dated 2014).
Where no end group is shown, it is not given here.

Legend:
[1] = Cerebral blood flow after bolus injection of UCN; assay type: in vivo; details: UCN 25 μg/kg body weight
IL-1β = assay: Cytokine ELISA of ipsilateral striatal tissue; assay type: in vivo, rats; details: L-UCN 2.5 μg/kg i.p.; days 1, 3 and 7 post-ICH; vs ICH+Saline
Experimental: (§1) Rats were used for the cytokine assay by ELISA. The ipsilateral striatal tissues were collected before and on days 1, 3 and 7 days post-ICH. After homogenization in the lysis buffer (PRO-PREP™, iNtRON Biotechnology, Korea) and centrifuged at 12,000 g for 30 minutes, the supernatants were collected and stored frozen at −80° C. During quantification, the cytokines (TNFα, IL-1β and IL-6) were normalized to 100 μg of proteins in the supernatant using a commercial ELISA kit from R & D Systems (Minneapolis, Minn., USA) according to the manufacturer's instructions.

IL-6 = assay: Cytokine ELISA of ipsilateral striatal tissue; assay type: in vivo, rats; details: L-UCN 2.5 μg/kg i.p.; day 1 post-ICH; vs ICH+Saline
Experimental: as §1

TNF-α = assay: Cytokine ELISA of ipsilateral striatal tissue; assay type: in vivo, rats; details: L-UCN 2.5 μg/kg i.p.; days 1, 3 and 7 post-ICH; vs ICH+Saline
Experimental: as §1

[2] = test system: collagenase-induced ICH rats; assay: Assessment of brain edema (brain water content, wet/dry method); assay type: in vivo; details: day 3 post-ICH
Description: Brain edema formation peaks on day 3 post-ICH (Xue et al., 2000; Yang et al., 1994). […] Rats were randomly used in the assessment of brain water content by using a common wet/dry method as previously described (Chu et al., 2004). Briefly, 3 days post-ICH, rats were anesthetized and decapitated. The brains were removed and separated into contralateral, ipsilateral hemispheres and cerebellum. The cerebellum was used as an internal control. Sample was weighed to obtain the wet weight immediately, and then dried in an oven at 100° C. for 24 hours to obtain the dry weight. The water content was expressed as a percentage of the wet weight: [(wet weight)−(dry weight)](wet weight)^−1×100%.

NeuN+ cells (neurons) = assay: Immunohistochemistry of neuronal loss (NeuN); assay type: in vivo, rats; details: perihematomal region; L-UCN 2.5 μg/kg i.p.; day 3 post-ICH
Experimental: Rats were used in immunohistochemistry on day 3 post-ICH. Rats were anesthetized as described above and transcardially perfused with cold 0.1 M phosphate buffer saline followed by cold 4% paraformaldehyde in 0.1 M phosphate-buffered saline. Brains were removed and immersed in 4% paraformaldehyde for 24 hours and 30% sucrose for another 24 hours. Coronal brain sections (20 μm thickness) were cut and collected from 0.0 to −2.0 mm AP to bregma using a cryostat (Leica CM 1900). Three 20 μm coronal sections, representing the core of the hematoma, were taken starting at 0.0 mm from bregma (the needle entry site). Additional adjacent serial coronal sections taken through the center of the hemorrhagic lesion were processed for the counting of marker-specific cells (Jung et al., 2004). Antibodies of OX-42 (1:100; BD, USA), ED-1 (1:100; BD, USA) were used as microglial markers, and NeuN (1:200, Chemicon, USA) was used as neuron marker. Tissues sections were incubated with the primary antibodies overnight at 4° C. […] The numbers of positive cells in the same focal plane were counted in 6 regions of interest around the ipsilateral striatum (perihematomal region, 1 mm^2) All cell counting was done by an independent investigator counted the positive cells.

[3] = test system: autologous blood infusion-induced ICH rats; assay: modified Neurological Severity Score (mNSS), autologous blood infusion ICH model; assay type: in vivo
Experimental: The ICH refers to hemorrhage in the striatum, a part of the brain. Male Sprague-Dawley rats (250-300 g) anesthetized with chloral hydrate (0.4 g kg^−1 i.p., Sigma-Aldrich, St. Louis, Mo., USA). The blood infusion model of ICH was induced by intrastriatal (0.0 mm posterior, 3.0 mm right, 5.0 mm ventral to bregma skull surface) infusion of autologous blood (100 μl within 1 minute) and stereotaxic administration of bacterial collagenase VII-S into the striatum (MacLellan et al. 2008; Rosenberg et al. 1990). Briefly, bacterial collagenase VII-S (0.23 U in 1.0 μl sterile saline, Sigma-Aldrich) was infused into the striatum over a period of 10 minutes. The needle was kept in place for another 10 minutes to prevent backflow. The craniotomies were sealed with bone wax. The rats were allowed to recover in separate cages at room temperature.
Rats were used in the assessment of the neurological abnormalities with a modified Neurological Severity Score (mNSS) method (Chen et al. 2001) by an investigator blinded to the experimental treatment scheme. The mNSS is a composite test of motor, sensory, and balance functions. The assessment was performed before and on 1, 3 and 7 days after the ICH. Neurological functions were graded on a scale of 0-18 (normal score, 0; maximal deficit score, 18).

## urocortin (DNPSLSIDLTFHLLRTLLELARTQSQRERAEQNRIIFDSV; ends and bridges not checked; UniProt P55089 83-122, looked up) [UCN, a 40-amino-acid endogenous neuropeptide, belongs to the corticotrophin releasing hormone (CRH) family]
[1]; bolus intraperitoneal injection
  reduction of the cerebral blood flow (CBF): 25%
[1]; bolus intravenous injection
  reduction of CBF: 40-45%
IL-1β
  IL-1β level of ipsilateral striatum: significantly reduced
IL-6
  IL-6 level of ipsilateral striatum: reduced
TNF-α
  TNF-α level of ipsilateral striatum: significantly reduced
[2]; cerebellum, L-UCN and H-UCN i.p., among groups
  brain water content: No significant differences
[2]; cerebellum, UCN 5 μg i.c.v., among groups
  brain water content: essentially not affected
[2]; contralateral hemisphere, H-UCN 25 μg/kg i.p.
  brain water content: 79.40±0.15%
[2]; contralateral hemisphere, L-UCN 2.5 μg/kg i.p.
  brain water content: 79.98±0.19%
[2]; contralateral hemisphere, UCN 5 μg i.c.v.
  brain water content: 80.08±0.08%
[2]; ipsilateral hemisphere, H-UCN 25 μg/kg i.p.
  brain water content: 79.94±0.66%
[2]; ipsilateral hemisphere, L-UCN 2.5 μg/kg i.p.
  brain water content: 80.60±0.17%
[2]; ipsilateral hemisphere, UCN 5 μg i.c.v.
  brain water content: 81.16±0.16%
NeuN+ cells (neurons)
  NeuN+ cells: 397.00±39.74 cells/6 mm^2
[3]; UCN 2.5 μg/kg i.p. 60 min after blood infusion ICH, vs ICH+Saline
  mNSS: greater reduction in mNSS
[3]; UCN 5 μg i.c.v. 1 h after blood infusion ICH, vs saline
  mNSS: greater reduction in mNSS
